From the NIST ThermoML archive (doi:10.1021/je100851w)
Numbers after ± are expanded uncertainties.

Test: xn = mol fraction of the nth substance listed
Conditions: Vibrating tube method

S [hydrogen sulfide] + CCC
Conditions	mass density [kg/m3]
263.11 K, 8 kPa, Gas, x1 = 0.2227	0.1
263.11 K, 159 kPa, Gas, x1 = 0.2227	3.1 ± 0.1
263.11 K, 298 kPa, Gas, x1 = 0.2227	6.1 ± 0.1
263.11 K, 438 kPa, Gas, x1 = 0.2227	9.1 ± 0.1
263.11 K, 707 kPa, Liquid, x1 = 0.2227	571.2 ± 0.3
263.11 K, 2357 kPa, Liquid, x1 = 0.2227	574.3 ± 0.3
263.11 K, 4057 kPa, Liquid, x1 = 0.2227	577.3 ± 0.3
263.11 K, 5814 kPa, Liquid, x1 = 0.2227	580.3 ± 0.4
263.11 K, 7697 kPa, Liquid, x1 = 0.2227	583.3 ± 0.4
263.11 K, 9735 kPa, Liquid, x1 = 0.2227	586.4 ± 0.5
263.11 K, 11879 kPa, Liquid, x1 = 0.2227	589.5 ± 0.5
263.11 K, 14087 kPa, Liquid, x1 = 0.2227	592.6 ± 0.5
263.11 K, 16300 kPa, Liquid, x1 = 0.2227	595.6 ± 0.6
263.11 K, 18708 kPa, Liquid, x1 = 0.2227	598.6 ± 0.6
263.11 K, 21118 kPa, Liquid, x1 = 0.2227	601.6 ± 0.7
263.11 K, 23736 kPa, Liquid, x1 = 0.2227	604.6 ± 0.7
263.11 K, 26466 kPa, Liquid, x1 = 0.2227	607.7 ± 0.8
263.11 K, 29282 kPa, Liquid, x1 = 0.2227	610.8 ± 0.8
263.11 K, 32290 kPa, Liquid, x1 = 0.2227	613.9 ± 0.9
263.11 K, 35311 kPa, Liquid, x1 = 0.2227	616.9 ± 0.9
263.11 K, 38486 kPa, Liquid, x1 = 0.2227	620 ± 1
263.11 K, 41881 kPa, Liquid, x1 = 0.2227	623.1 ± 1
268.09 K, 9 kPa, Gas, x1 = 0.2691	0.2
268.09 K, 180 kPa, Gas, x1 = 0.2691	3.5 ± 0.1
268.09 K, 335 kPa, Gas, x1 = 0.2691	6.7 ± 0.1
268.09 K, 476 kPa, Gas, x1 = 0.2691	9.7 ± 0.1
268.09 K, 818 kPa, Liquid, x1 = 0.2691	570 ± 0.3
268.09 K, 2369 kPa, Liquid, x1 = 0.2691	573.1 ± 0.3
268.09 K, 3999 kPa, Liquid, x1 = 0.2691	576.3 ± 0.3
268.09 K, 5608 kPa, Liquid, x1 = 0.2691	579.3 ± 0.4
268.09 K, 7451 kPa, Liquid, x1 = 0.2691	582.5 ± 0.4
268.09 K, 9258 kPa, Liquid, x1 = 0.2691	585.5 ± 0.4
268.09 K, 11262 kPa, Liquid, x1 = 0.2691	588.7 ± 0.5
268.09 K, 13236 kPa, Liquid, x1 = 0.2691	591.8 ± 0.5
268.09 K, 15455 kPa, Liquid, x1 = 0.2691	595 ± 0.6
268.09 K, 17739 kPa, Liquid, x1 = 0.2691	598.2 ± 0.6
268.09 K, 20006 kPa, Liquid, x1 = 0.2691	601.2 ± 0.6
268.09 K, 22487 kPa, Liquid, x1 = 0.2691	604.4 ± 0.7
268.09 K, 24903 kPa, Liquid, x1 = 0.2691	607.4 ± 0.7
268.09 K, 27518 kPa, Liquid, x1 = 0.2691	610.5 ± 0.8
268.09 K, 30199 kPa, Liquid, x1 = 0.2691	613.6 ± 0.8
268.09 K, 33045 kPa, Liquid, x1 = 0.2691	616.7 ± 0.9
268.09 K, 36027 kPa, Liquid, x1 = 0.2691	619.8 ± 0.9
268.09 K, 39139 kPa, Liquid, x1 = 0.2691	622.9 ± 1
293.28 K, 14 kPa, Gas, x1 = 0.2227	0.2
293.28 K, 186 kPa, Gas, x1 = 0.2227	3.3 ± 0.1
293.28 K, 350 kPa, Gas, x1 = 0.2227	6.3 ± 0.1
293.28 K, 509 kPa, Gas, x1 = 0.2227	9.4 ± 0.1
293.28 K, 665 kPa, Gas, x1 = 0.2227	12.6 ± 0.1
293.28 K, 804 kPa, Gas, x1 = 0.2227	15.6 ± 0.1
293.28 K, 932 kPa, Gas, x1 = 0.2227	18.7 ± 0.1
293.28 K, 1050 kPa, Gas, x1 = 0.2227	21.9 ± 0.1
293.28 K, 3770 kPa, Liquid, x1 = 0.2227	518.4 ± 0.4
293.28 K, 4686 kPa, Liquid, x1 = 0.2227	521.6 ± 0.4
293.28 K, 5576 kPa, Liquid, x1 = 0.2227	524.8 ± 0.4
293.28 K, 6556 kPa, Liquid, x1 = 0.2227	527.8 ± 0.4
293.28 K, 7610 kPa, Liquid, x1 = 0.2227	530.9 ± 0.5
293.28 K, 8755 kPa, Liquid, x1 = 0.2227	534.1 ± 0.5
293.28 K, 9941 kPa, Liquid, x1 = 0.2227	537.3 ± 0.5
293.28 K, 11195 kPa, Liquid, x1 = 0.2227	540.5 ± 0.5
293.28 K, 12466 kPa, Liquid, x1 = 0.2227	543.5 ± 0.6
293.28 K, 13825 kPa, Liquid, x1 = 0.2227	546.6 ± 0.6
293.28 K, 15156 kPa, Liquid, x1 = 0.2227	549.6 ± 0.6
